Assay results reported in patent US7700543B2, “Use NF-κB inhibition in combination therapy for cancer” (The University of North Carolina at Chapel Hill, priority 1997, dated 2010).
“Also recorded” adds a separate entry of the source. Peptide text beside a SMILES is read from it. * marks the point of attachment. Cbz = O=C(OCc1ccccc1)*

What was measured:
[1] = system: HT1080 fibrosarcoma cells; assay: Cell survival by crystal violet assay in HT1080V and HT1080I cells; type: cell-based, human
Protocol: HT1080V (open squares) and HT1080I cells (solid diamonds) were treated with TNFα (20 ng/ml) for varying times and surviving cells were quantified by crystal violet assay (Mehlen et al., EMBO J. 15:2695 (1996)). Data shown (FIG. 1A) are the mean of three independent experiments ±SD, and the percentage cell survival was defined as the relative number of TNF treated versus untreated cells.
HT1080V and HT1080I cells were preincubated with 10 ng/ml IL-1β (R & D Systems) for 5 hours (+Pre IL-1), or were left untreated. Cells were then treated with 10 μg/ml cycloheximide (CHX) and different concentrations of TNFα (0-50 ng/ml). Surviving cells were quantified by crystal violet assay (Mehlen et al., EMBO J. 15:2695 (1996)). […] Open squares represent HT1080V cells without IL-1 pretreatment; closed squares represent HT1080V cells pretreated with IL-1; circles represent HT1080I cells without IL-1 pretreatment; triangles represent HT1080I cells pretreated with IL-1.

NF-κB [2] = assay: NF-κB activation by CPT-11 (data not shown); type: cell-based
HT1080V cells = assay: Cell viability experiments, enhancement of TNF-induced cell killing by proteasome inhibitor; type: cell-based, human; conditions: dose-dependent, data not shown
From the text: The effect of a proteasome inhibitor on TNF-treated cells was investigated. Proteasome inhibitors of the peptide aldehyde category are potent inhibitors of NF-κB activation (Palombello et al., Cell 78:773 (1994); Chen et al., Genes Dev. 9:1586 (1995)). […] Cell viability experiments were used to monitor the effectiveness of MG132 in enhancing TNF-induced cell killing.

[3] = system: HT1080V and HT1080I cells; assay: Cell viability of HT1080V and HT1080I cells treated with cytotoxic agent (data not shown); type: cell-based, human
Protocol: The present inventors' preliminary data additionally indicate that cell killing by vincristine is augmented by the inhibition of NF-κB (data not shown). HT1080V and HT1080I cells were treated with vincristine and cell viability was determined.

NF-κB [4] = assay: Electrophoretic mobility-shift assay (EMSA) of NF-κB nuclear translocation in HT1080V and HT1080I cells; type: cell-based, human
Protocol: HT1080 fibrosarcoma cells were co-transfected with the pCMV empty vector to produce control cells HT1080V; HT1080 cells co-transfected with the pCMV vector containing a cDNA encoding the super-repressor IκBα and with the pCEP4 vector for hygromycin B selection (400 μg/ml) provided HT1080I cells that expressed the super-repressor IκBα.

[5] = system: HT1080 fibrosarcoma cells; assay: TNF-induced apoptosis detected by TUNEL staining; type: cell-based, human; conditions: 50 ng/ml TNFα for 7 hr; HT1080V and HT1080I cells; FIG. 1B
Protocol: TNF-induced apoptosis was detected by TUNEL staining (Graeber et al., Nature 379:88 (1996)). HT1080V (V) and HT1080I (I) cells were untreated (−TNF) or stimulated (+TNF) with 50 ng/ml TNFα for 7 hr and fixed with 4% paraformaldehyde. The staining was done according to the manufacturer's instructions (Boehringer Mannheim).

## COc1cccc2c1C(=O)c1c(O)c3c(c(O)c1C2=O)C[C@@](O)(C(C)=O)C[C@@H]3O[C@H]1C[C@H](N)[C@H](O)[C@H](C)O1 [daunorubicin]
[1]; 0.1 to 2.0 μM for 24 hours, FIG. 3B
  Cell survival after daunorubicin, HT1080I versus control cells: reduced in HT1080I cells

## CCc1c2c(nc3ccc(OC(=O)N4CCC(N5CCCCC5)CC4)cc13)-c1cc3c(c(=O)n1C2)COC(=O)[C@]3(O)CC [CPT-11, irinotecan]
NF-κB [2]
  Activation of NF-κB: determined to activate NF-κB

## CC(C)C[C@@H](C=O)NC(=O)[C@H](CC(C)C)NC(=O)[C@H](CC(C)C)NC(=O)OCc1ccccc1 [MG132, Z-leu-leu-leu-H] (Cbz-Leu-Leu-Leu-aldehyde)
HT1080V cells
  Enhancement of TNF-induced killing: strongly enhanced TNF-induced killing of HT1080V cells

## CC[C@]1(O)C[C@H]2CN(CCc3c([nH]c4ccccc34)[C@@](C(=O)OC)(c3cc4c(cc3OC)N(C=O)[C@H]3[C@@](O)(C(=O)OC)[C@H](OC(C)=O)[C@]5(CC)C=CCN6CC[C@]43[C@@H]65)C2)C1 [vincristine]
[3]; preliminary data, not shown
  Cell killing in HT1080I versus HT1080V cells: Cell killing in HT1080I cells was enhanced compared to that in HT1080V cells

## CN[C@@H]1C[C@H]2O[C@@](C)([C@@H]1OC)n1c3ccccc3c3c4c(c5c6ccccc6n2c5c31)C(=O)NC4 [staurosporine]
[3]; HT1080I cells, data not shown
  Apoptosis induced in IκBα expressing cells versus control: not enhanced by the expression of IκBα
NF-κB [4]; HT1080V cells, 1 μM daunorubicin or 50 nM staurosporine
  NF-κB nuclear translocation (EMSA) in control cells: did not activate NF-κB; also recorded: only slight nuclear translocation of NF-κB was evident

## TNFα
[5]
  Apoptotic morphology by TUNEL staining: only super-repressor IκBα expressing cells showed apoptotic morphology
[1]; TNFα 20 ng/ml, varying times, FIG. 1A
  Cell survival after TNFα, HT1080I versus HT1080V: Cell survival was reduced in HT1080I cells compared to HT1080V controls

## IL-1: an activator of NF-κB that does not initiate apoptosis
[1]; 10 ng/ml IL-1β for 5 hours, then 10 μg/ml CHX and TNFα 0-50 ng/ml, FIG. 2A
  Effect of pre-treatment on TNFα+CHX-induced apoptosis in HT1080V cells: inhibited TNFα+CHX-induced apoptosis in HT1080V cells
[1]; HT1080I cells, NF-κB activation blocked, FIG. 2A
  Effect of pre-treatment on CHX+TNF-induced killing in HT1080I cells: no protective effect

B1: super-repressor IκBα: mutant IκBα with serine to alanine mutations at residues 32 and 36; binds NF-κB and inhibits nuclear translocation (protein, UniProt P25963 1-317, looked up, variant S32A S36A)
NF-kappa-B inhibitor alpha: MFQAAERPQEWAMEGPRDGLKKERLLDDRHDAGLDAMKDEEYEQMVKELQEIRLEPQEVPRGSEPWKQQLTEDGDSFLHLAIIHEEKALTMEVIRQVKGDLAFLNFQNNLQQTPLHLAVITNQPEIAEALLGAGCDPELRDFRGNTPLHLACEQGCLASVGVLTQSCTTPHLHSILKATNYNGHTCLHLASIHGYLGIVELLVSLGADVNAQEPCNGRTALHLAVDLQNPDLVSLLLKCGADVNRVTYQGYSPYQLTWGRPSTRIQQQLGQLTLENLQMLPESEDEESYDTESEFTEFTEDELPYDDCVFGGQRLTL
NF-κB [4]; expressed in HT1080I cells, data not shown
  Effect on TNF-stimulated NF-κB nuclear translocation (EMSA): efficiently blocked TNF-stimulated NF-κB nuclear translocation
